Results on one compound are retold here after ChEMBL document CHEMBL1201862, “PubChem BioAssay data set” (2004).

Among the test systems are A549; DLD-1; DMS-114; DMS-273; HCT-15; HOP-18; KM-20L2; LXFL 529; M19-MEL; NCI-H23; SK-MEL-2; SNB-19; SW-620; U-251; XF498.
Holding throughout (assay): DTP human tumour cell line panel, 48 h

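Briefly, cells in 96-well plates were exposed to five compound concentrations for 48 h, and endpoints were estimated by linear interpolation. Abbreviation: GI50, concentration required for 50% inhibition of growth.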 Active and inactive are the calls of the source. Rule as the data show it: active = GI50 up to about 1.1 µM and inactive = higher.

What is called GI50 is the concentration that inhibits growth by half.

With `COC1(OC)CCC2C1C1CCC(OC)(OC)C21` (stereo not given), the GI50 with A549 is > 50 µM (inactive); in the assay with DLD-1, > 50 µM (inactive); in the assay with DMS-114, > 50 µM (inactive); in the assay on DMS-273, > 50 µM (inactive); in the assay on HCT-15, more than 50 µM; with HOP-18, > 50 µM (inactive). The GI50 with KM-20L2, with LXFL 529, in the assay with M19-MEL, in the assay with NCI-H23, in the assay with SK-MEL-2 and with SNB-19 was > 50 µM (inactive) in each case. In addition, the GI50 in the assay with SW-620, with U-251 and in the assay on XF498 was > 50 µM (inactive) in each case.
